According to PubChem BioAssay (NCI):
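At the GI50, growth is halved. The concentration for full growth arrest is given as TGI.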

Legend:
Test in all cases: NCI-60 cell line screen, 384-well format
786-0 renal = tested on: 786-0 renal
A498 renal = tested on: A498 renal
A549 NSCLC = tested on: A549 NSCLC
ACHN renal = tested on: ACHN renal
BT-549 breast = tested on: BT-549 breast
CAKI-1 renal = tested on: CAKI-1 renal
CCRF-CEM leukemia = tested on: CCRF-CEM leukemia
COLO 205 colon = tested on: COLO 205 colon
DU-145 prostate = tested on: DU-145 prostate
EKVX NSCLC = tested on: EKVX NSCLC
HCC-2998 colon = tested on: HCC-2998 colon
HCT-116 colon = tested on: HCT-116 colon
HCT-15 colon = tested on: HCT-15 colon
HL-60(TB) leukemia = tested on: HL-60(TB) leukemia
HOP-62 NSCLC = tested on: HOP-62 NSCLC
HOP-92 NSCLC = tested on: HOP-92 NSCLC
HS 578T breast = tested on: HS 578T breast
HT29 colon = tested on: HT29 colon
IGROV1 ovarian = tested on: IGROV1 ovarian
K-562 leukemia = tested on: K-562 leukemia
KM12 colon = tested on: KM12 colon
LOX IMVI melanoma = tested on: LOX IMVI melanoma
M14 melanoma = tested on: M14 melanoma
MALME-3M melanoma = tested on: MALME-3M melanoma
MCF7 breast = tested on: MCF7 breast
MDA-MB-435 melanoma = tested on: MDA-MB-435 melanoma
MDA-MB-468 breast = tested on: MDA-MB-468 breast
MOLT-4 leukemia = tested on: MOLT-4 leukemia
NCI-H226 lung = tested on: NCI-H226 lung
NCI-H23 lung = tested on: NCI-H23 lung
NCI-H322M lung = tested on: NCI-H322M lung
NCI-H460 NSCLC = tested on: NCI-H460 NSCLC
NCI-H522 lung = tested on: NCI-H522 lung
NCI/ADR-RES ovarian = tested on: NCI/ADR-RES ovarian
OVCAR-3 ovarian = tested on: OVCAR-3 ovarian
OVCAR-4 ovarian = tested on: OVCAR-4 ovarian
OVCAR-8 ovarian = tested on: OVCAR-8 ovarian
PC-3 prostate = tested on: PC-3 prostate
RPMI-8226 leukemia = tested on: RPMI-8226 leukemia
RXF 393 renal = tested on: RXF 393 renal
SF-268 CNS = tested on: SF-268 CNS
SF-295 CNS = tested on: SF-295 CNS
SF-539 CNS = tested on: SF-539 CNS
SK-MEL-2 melanoma = tested on: SK-MEL-2 melanoma
SK-MEL-28 melanoma = tested on: SK-MEL-28 melanoma
SK-MEL-5 melanoma = tested on: SK-MEL-5 melanoma
SK-OV-3 ovarian = tested on: SK-OV-3 ovarian
SN12C renal = tested on: SN12C renal
SNB-19 CNS = tested on: SNB-19 CNS
SNB-75 CNS = tested on: SNB-75 CNS
SW-620 colon = tested on: SW-620 colon
TK-10 renal = tested on: TK-10 renal
U251 glioblastoma = tested on: U251 glioblastoma
UACC-257 melanoma = tested on: UACC-257 melanoma
UACC-62 melanoma = tested on: UACC-62 melanoma

Structure (SMILES): O=C(Nc1cccc(Br)c1)Oc1cccc2cccnc12
- GI50 ([…]-0 renal): 16.3 µM
- TGI (786-0 renal): 33.9 µM
- GI50 (A498 renal): 12.9 µM
- TGI (A498 renal): 26.3 µM
- GI50 (A549 NSCLC): 13.8 µM
- TGI (A549 NSCLC): 32.8 µM
- GI50 (ACHN renal): 6.26 µM
- TGI (ACHN renal): 27.1 µM
- GI50 (BT-549 breast): 6.95 µM
- TGI (BT-549 breast): 22 µM
- GI50 (CAKI-1 renal): 2.35 µM
- TGI (CAKI-1 renal): 4.98 µM
- GI50 (CCRF-CEM leukemia): 1.94 µM
- TGI (CCRF-CEM leukemia): 3.43 µM
- GI50 (COLO 205 colon): 2.61 µM
- TGI (COLO 205 colon): 4.87 µM
- GI50 (DU-145 prostate): 8.98 µM
- TGI (DU-145 prostate): 36.7 µM
- GI50 (EKVX NSCLC): 2.39 µM
- TGI (EKVX NSCLC): 4.96 µM
- GI50 (HCC-2998 colon): 16.2 µM
- TGI (HCC-2998 colon): 30.1 µM
- GI50 (HCT-116 colon): 2.4 µM
- TGI (HCT-116 colon): 4.37 µM
- GI50 (HCT-15 colon): 3.4 µM
- TGI (HCT-15 colon): 9.07 µM
- GI50 (HL-60(TB) leukemia): 1.73 µM
- TGI (HL-60(TB) leukemia): 3.11 µM
- GI50 (HOP-62 NSCLC): 7.61 µM
- TGI (HOP-62 NSCLC): 18.8 µM
- GI50 (HOP-92 NSCLC): 4.02 µM
- TGI (HOP-92 NSCLC): 10.5 µM
- GI50 (HS 578T breast): 16.7 µM
- TGI (HS 578T breast): 39.8 µM
- GI50 (HT29 colon): 8.98 µM
- TGI (HT29 colon): 21.2 µM
- GI50 (IGROV1 ovarian): 2.23 µM
- TGI (IGROV1 ovarian): 4.46 µM
- GI50 (K-562 leukemia): 23.5 µM
- TGI (K-562 leukemia): 50.3 µM
- GI50 (KM12 colon): 5.99 µM
- TGI (KM12 colon): 18.1 µM
- GI50 (LOX IMVI melanoma): 2.95 µM
- TGI (LOX IMVI melanoma): 10.8 µM
- GI50 (M14 melanoma): 2.78 µM
- TGI (M14 melanoma): 6.06 µM
- GI50 (MALME-3M melanoma): 4.16 µM
- TGI (MALME-3M melanoma): 13.1 µM
- GI50 (MCF7 breast): 2.23 µM
- TGI (MCF7 breast): 4.47 µM
- GI50 (MDA-MB-435 melanoma): 12.6 µM
- TGI (MDA-MB-435 melanoma): 30.4 µM
- GI50 (MDA-MB-468 breast): 2.82 µM
- TGI (MDA-MB-468 breast): 4.48 µM
- GI50 (MOLT-4 leukemia): 1.99 µM
- TGI (MOLT-4 leukemia): 3.47 µM
- GI50 (NCI-H226 lung): 1.74 µM
- TGI (NCI-H226 lung): 3.42 µM
- GI50 (NCI-H23 lung): 2.01 µM
- TGI (NCI-H23 lung): 3.73 µM
- GI50 (NCI-H322M lung): 17.5 µM
- TGI (NCI-H322M lung): 43 µM
- GI50 (NCI-H460 NSCLC): 2.76 µM
- TGI (NCI-H460 NSCLC): 6.44 µM
- GI50 (NCI-H522 lung): 2.18 µM
- TGI (NCI-H522 lung): 4.32 µM
- GI50 (NCI/ADR-RES ovarian): 2.43 µM
- TGI (NCI/ADR-RES ovarian): 4.56 µM
- GI50 (OVCAR-3 ovarian): 2.12 µM
- TGI (OVCAR-3 ovarian): 3.92 µM
- GI50 (OVCAR-4 ovarian): 4.82 µM
- TGI (OVCAR-4 ovarian): 14.9 µM
- GI50 (OVCAR-8 ovarian): 2.56 µM
- TGI (OVCAR-8 ovarian): 5.3 µM
- GI50 (PC-3 prostate): 2.79 µM
- TGI (PC-3 prostate): 5.48 µM
- GI50 (RPMI-8226 leukemia): 2.26 µM
- TGI (RPMI-8226 leukemia): 3.75 µM
- GI50 (RXF 393 renal): 3.5 µM
- TGI (RXF 393 renal): 7.85 µM
- GI50 (SF-268 CNS): 3.69 µM
- TGI (SF-268 CNS): 9.11 µM
- GI50 (SF-295 CNS): 7.95 µM
- TGI (SF-295 CNS): 23.6 µM
- GI50 (SF-539 CNS): 5.79 µM
- TGI (SF-539 CNS): 17.1 µM
- GI50 (SK-MEL-2 melanoma): 2.8 µM
- TGI (SK-MEL-2 melanoma): 5.41 µM
- GI50 (SK-MEL-28 melanoma): 4.56 µM
- TGI (SK-MEL-28 melanoma): 15.1 µM
- GI50 (SK-MEL-5 melanoma): 5.81 µM
- TGI (SK-MEL-5 melanoma): 17.9 µM
- GI50 (SK-OV-3 ovarian): 17.9 µM
- TGI (SK-OV-3 ovarian): 34.3 µM
- GI50 (SN12C renal): 4.46 µM
- TGI (SN12C renal): 15.4 µM
- GI50 (SNB-19 CNS): 9.79 µM
- TGI (SNB-19 CNS): 38.3 µM
- GI50 (SNB-75 CNS): 4.08 µM
- TGI (SNB-75 CNS): 12.9 µM
- GI50 (SW-620 colon): 6.19 µM
- TGI (SW-620 colon): 36.7 µM
- GI50 (TK-10 renal): 6.51 µM
- TGI (TK-10 renal): 33.5 µM
- GI50 (U251 glioblastoma): 5.89 µM
- TGI (U251 glioblastoma): 17.4 µM
- GI50 (UACC-257 melanoma): 2.28 µM
- TGI (UACC-257 melanoma): 4.16 µM
- GI50 (UACC-62 melanoma): 3.74 µM
- TGI (UACC-62 melanoma): 9.42 µM
